Assay results from ChEMBL document CHEMBL5390229, “Inhibiting HCMV pUL89-C Endonuclease with Metal-Binding Compounds” (J Med Chem, 2023).

Legend:
Cytomegalovirus [1] = test: Antiviral activity against Human Cytomegalovirus; conditions: Human betaherpesvirus 5
[2] = molecular target: T1, Tripartite terminase subunit 3 (Human betaherpesvirus 5, UniProt P16732); test: Inhibition of Human Cytomegalovirus C-terminal UL89 […] using (5-tcggtgcgggcctcttcgctattacgccagctggcgaaagggggatgtgctgcaaggcga as a substrate preincubated for 15 mins followed by substrate addition and measured after 30 mins by plate reader endonuclease assay
T1 sequence (P16732 whole entry): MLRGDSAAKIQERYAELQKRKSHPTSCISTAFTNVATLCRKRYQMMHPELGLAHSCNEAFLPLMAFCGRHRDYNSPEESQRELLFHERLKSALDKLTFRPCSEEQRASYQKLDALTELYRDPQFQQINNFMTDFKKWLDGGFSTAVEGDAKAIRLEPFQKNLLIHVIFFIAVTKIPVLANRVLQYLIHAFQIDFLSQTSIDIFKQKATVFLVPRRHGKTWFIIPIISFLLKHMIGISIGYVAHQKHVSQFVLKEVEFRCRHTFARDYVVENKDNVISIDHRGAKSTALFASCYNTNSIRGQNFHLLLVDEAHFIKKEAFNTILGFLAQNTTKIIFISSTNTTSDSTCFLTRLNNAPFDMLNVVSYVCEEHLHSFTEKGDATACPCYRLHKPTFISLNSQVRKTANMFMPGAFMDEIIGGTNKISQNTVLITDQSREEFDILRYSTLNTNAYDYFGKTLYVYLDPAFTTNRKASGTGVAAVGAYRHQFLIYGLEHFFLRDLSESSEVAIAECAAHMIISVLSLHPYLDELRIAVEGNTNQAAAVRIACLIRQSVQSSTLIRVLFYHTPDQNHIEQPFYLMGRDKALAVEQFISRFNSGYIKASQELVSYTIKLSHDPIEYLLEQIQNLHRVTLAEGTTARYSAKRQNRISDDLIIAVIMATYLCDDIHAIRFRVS

Cytomegalovirus [3] = test: Antiviral activity against Human Cytomegalovirus assessed as inhibition of viral growth at 10 uM relative to control; assay type: functional; conditions: Human betaherpesvirus 5
[4] = Permeability of the compound at pH 7.4 by PAMPA method; assay type: ADME; conditions: for Papp: read-out: permeability
[5] = molecular target: Human immunodeficiency virus type 1 integrase (Human immunodeficiency virus 1, UniProt Q7ZJM1, R263K); test: Inhibition of HIV-1 integrase DTG-resistant R263K mutant
[6] = Cytotoxicity against human HFF-1 cells assessed as induction of cell death incubated for 24 hrs by MTT assay; assay type: toxicity, cell-based
[7] = molecular target: T1, Tripartite terminase subunit 3; test: Inhibition of human Cytomegalovirus C-terminal UL89
[8] = molecular target: T2, Tripartite terminase subunit 3 (Human betaherpesvirus 5) (UniProt P16732); test: Inhibition of Human Cytomegalovirus C-terminal UL89 […] using (5-tcggtgcgggcctcttcgctattacgccagctggcgaaagggggatgtgctgcaaggcga as a substrate preincubated for 15 mins followed by substrate addition at 20 uM and measured after 30 mins by plate reader endonuclease assay relative to control; conditions: time 45.0 min
T2 sequence (whole entry): T1 sequence (P16732 whole entry)

[9] = molecular target: Hepatitis C virus NS5B RNA-dependent RNA polymerase (Hepatitis C virus, UniProt Q8JXU8); test: Inhibition of Hepatitis C virus NS5B polymerase; set-up: species or system Hepacivirus hominis
[10] = Selectivity index, ratio of CC50 for human HFF cells to EC50 for Human cytomegalovirus; assay type: toxicity; conditions: read-out: Ratio CC50/EC50
HFF = test: Cytotoxicity against human HFF cells assessed as reduction in cell viability; assay type: functional
[11] = molecular target: T3, Human immunodeficiency virus type 1 reverse transcriptase (Human immunodeficiency virus 1, UniProt Q72547); test: Inhibition of HIV-1 reverse transcriptase
[12] = test system: Human immunodeficiency virus 1; test: Antiviral activity against HIV-1 harboring integrase L74M mutant; assay type: functional, organism-based
Integrase = Integrase (Human immunodeficiency virus 1, UniProt Q76353, Q148K); test: Inhibition of HIV-1 integrase Q148K mutant
[13] = molecular target: Human immunodeficiency virus type 1 integrase (Human immunodeficiency virus 1, UniProt Q7ZJM1, G140S/Q148K)
[14] = Cytotoxicity against human HFF cells assessed as reduction in cell viability incubated for 72 hrs by MTT assay; assay type: toxicity, cell-based
[15] = molecular target: T3, Human immunodeficiency virus type 1 reverse transcriptase; test: Inhibition of HIV-1 reverse transcriptase associated RNA-dependent DNA polymerase
[16] = test system: Human immunodeficiency virus 1; test: Antiviral activity against HIV-1 assessed as viral growth inhibition; assay type: functional, organism-based
[17] = molecular target: T3, Human immunodeficiency virus type 1 reverse transcriptase; test: Inhibition of HIV-1 RNase H polymerase activity

Sequence of Human immunodeficiency virus type 1 integrase (Human immunodeficiency virus 1, UniProt Q7ZJM1, R263K) (Q7ZJM1 entry or part of it R263K): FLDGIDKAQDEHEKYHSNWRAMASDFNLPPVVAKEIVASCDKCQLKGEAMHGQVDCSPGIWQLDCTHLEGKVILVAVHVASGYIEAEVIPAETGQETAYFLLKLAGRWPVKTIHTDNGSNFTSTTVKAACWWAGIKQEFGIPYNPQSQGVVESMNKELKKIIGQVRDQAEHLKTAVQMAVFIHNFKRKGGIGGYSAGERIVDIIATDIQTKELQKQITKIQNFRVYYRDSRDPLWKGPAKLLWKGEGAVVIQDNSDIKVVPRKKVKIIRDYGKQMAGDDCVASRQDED
Sequence of Hepatitis C virus NS5B RNA-dependent RNA polymerase (Q8JXU8 whole entry): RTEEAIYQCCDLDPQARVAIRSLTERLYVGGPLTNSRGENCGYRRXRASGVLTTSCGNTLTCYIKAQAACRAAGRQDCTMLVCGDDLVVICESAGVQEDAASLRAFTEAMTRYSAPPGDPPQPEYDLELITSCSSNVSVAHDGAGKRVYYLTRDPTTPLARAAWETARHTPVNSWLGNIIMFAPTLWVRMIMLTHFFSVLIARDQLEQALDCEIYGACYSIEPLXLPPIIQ
Sequence of Human immunodeficiency virus type 1 integrase (Human immunodeficiency virus 1, UniProt Q7ZJM1, G140S/Q148K) (Q7ZJM1 entry or part of it G140S/Q148K): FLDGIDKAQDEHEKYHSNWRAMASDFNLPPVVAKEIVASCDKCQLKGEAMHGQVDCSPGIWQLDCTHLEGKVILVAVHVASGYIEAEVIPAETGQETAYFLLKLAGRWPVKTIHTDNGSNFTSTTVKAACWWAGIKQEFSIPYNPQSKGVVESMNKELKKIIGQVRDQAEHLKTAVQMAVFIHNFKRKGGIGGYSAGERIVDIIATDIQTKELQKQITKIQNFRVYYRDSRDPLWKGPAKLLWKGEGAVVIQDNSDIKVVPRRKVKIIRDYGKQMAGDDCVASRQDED
Sequence of Integrase (Q76353 entry or part of it Q148K): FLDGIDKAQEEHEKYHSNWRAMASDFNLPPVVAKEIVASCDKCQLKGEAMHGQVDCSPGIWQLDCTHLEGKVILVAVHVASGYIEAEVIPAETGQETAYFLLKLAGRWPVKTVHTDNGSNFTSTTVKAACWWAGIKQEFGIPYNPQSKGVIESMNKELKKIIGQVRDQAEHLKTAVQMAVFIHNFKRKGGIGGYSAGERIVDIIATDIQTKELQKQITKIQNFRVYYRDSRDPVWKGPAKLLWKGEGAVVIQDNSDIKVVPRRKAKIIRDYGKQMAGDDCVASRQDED

Compound	EC50 (Cytomegalovirus [1]) [nM]	IC50 [2] [nM]	inhibition at 10 µM (Cytomegalovirus [3]) [%]	also measured
O=c1cc(Nc2ccc(-c3cccc(O)c3)cc2)[nH]c(=O)n1O	> 20000	2900		
O=c1cc(Nc2ccc(-c3ccc(Cl)cc3)cc2)[nH]c(=O)n1O	> 20000	9300		
O=c1[nH]c2sc3c(c2c(=O)n1O)CCCC3		790	-3	permeability [4]: 1.1 10^-6 cm/s
O=c1[nH]c2sc(-c3ccc(Cl)cc3)cc2c(=O)n1O	7600	300	33	Papp [4]: 0.5 ×10⁻⁶ cm/s
O=C(O)C(=O)CC(=O)c1cccc(Cc2ccccc2)c1				IC50 [5]: 10 nM
O=c1[nH]c2cc(-c3ccccc3)sc2c(=O)n1O	13000	600	59	CC50 at 24 h [6]: > 50000 nM; permeability [4]: 1.4 10^-6 cm/s
O=c1[nH]c2ccsc2c(=O)n1O		100	-11	Papp [4]: 0.1 ×10⁻⁶ cm/s
O=c1c2cc(Cc3ccccc3)ccc2oc2ccc(O)c(O)c12				IC50 [5]: 600 nM
O=c1cc(Nc2cccc(-c3ccc(Cl)cc3)c2)[nH]c(=O)n1O	> 20000	> 20000		
CN(Cc1ccc(F)cc1)C(=O)CC(=O)C(=O)O				IC50 [7]: 50000 nM
O=c1[nH]c2sccc2c(=O)n1O		400	-0.95	Papp [4]: 0.1 ×10⁻⁶ cm/s
O=C(NCc1ccc(F)cc1F)c1cn(Cc2ccc(F)cc2)cc(O)c1=O	900			inhibition [8]: 14%
NC(=O)c1cn(Cc2ccc(F)cc2)cc(O)c1=O		> 50000	50	
CCOC(=O)c1cc(=O)c(O)c(C(=O)O)o1				IC50 [9]: 2250 nM
O=C(O)c1cn(-c2ccccc2)cc(O)c1=O		> 25000	8	
O=C(NCCc1ccc(F)cc1F)c1cn(Cc2ccc(F)cc2)cc(O)c1=O	400			selectivity ratio [10]: > 40; CC50 (HFF): > 50000 nM; inhibition [8]: 10%
O=C(NCc1ccc(F)cc1)c1ncc2cccnc2c1O				IC50 [5]: 33 nM
O=C(c1cc(Cc2ccccc2)cc(CN2CCCS2(=O)=O)c1)c1ncc2cccnc2c1O				IC50 [5]: 10 nM
O=c1[nH]c2c3c(sc2c(=O)n1O)CCCC3		940	-4.5	Papp [4]: 1 ×10⁻⁶ cm/s
O=C(NCc1ccc(F)cc1F)c1cn(Cc2ccc(F)cc2)ccc1=O	6600			inhibition [8]: 5%
COc1cccc(OC)c1-c1cccc(Nc2cc(=O)n(O)c(=O)[nH]2)c1	15000	14000		
Cn1c(Nc2ccc(-c3ccccc3)cc2)cc(=O)n(O)c1=O	> 20000	> 20000		
O=c1[nH]c2c3c(sc2c(=O)n1O)CCC3	220	220	-32	Papp [4]: 0.3 ×10⁻⁶ cm/s
O=C(O)c1cn(Cc2ccc(F)c(Cl)c2)cc(O)c1=O	4000	6000	53	selectivity ratio [10]: > 116; CC50 (HFF): > 200000 nM
O=c1[nH]c2cc(-c3ccccc3)ccc2c(=O)n1O	13000	6400	91	Papp [4]: 2 ×10⁻⁶ cm/s
O=C(O)c1cn(Cc2ccc(F)cc2)cc(O)c1=O	10000		39	

Compound	EC50 (Cytomegalovirus [1]) [nM]	IC50 [2] [nM]	inhibition at 10 µM (Cytomegalovirus [3]) [%]	also measured
COc1cccc(-c2ccc(Nc3cc(=O)n(O)c(=O)[nH]3)cc2)c1	> 20000	1200		
Cc1ccc(CNC(=O)c2nc(Cl)c3cccnc3c2O)cc1		1800		
O=c1[nH]c2sc(-c3ccccc3)cc2c(=O)n1O		1600	2.7	Papp [4]: 0.5 ×10⁻⁶ cm/s
CC(C)c1cn(COCc2ccccc2)c(=O)[nH]c1=O				CC50 (HFF): > 20000 nM; IC50 [11]: 40 nM; EC50 [12]: 13 nM; IC50 (Integrase): > 333000 nM
O=C(O)c1cn(Cc2ccccc2)cc(O)c1=O		> 25000	38	
Cn1c(Nc2ccc(-c3ccc(C(F)(F)F)cc3)cc2)cc(=O)n(O)c1=O		> 20000		
O=c1cc(Nc2ccc(-c3ccc(O)cc3)cc2)[nH]c(=O)n1O	> 20000	1100		
CCOC(=O)c1cn(Cc2ccc(F)cc2)cc(O)c1=O			40	
O=C(NCc1ccccc1)c1nc(-c2cccs2)nc(O)c1O				IC50 [13]: 2600 nM
O=C(O)c1c[nH]cc(O)c1=O		14000	13	
Cn1c(Nc2ccc(-c3cccc(C#N)c3)cc2)cc(=O)n(O)c1=O	6200	740		
CCc1ccccc1Sc1cc(=O)n(O)c(=O)n1C				CC50 at 72 h [14]: 20000 nM
CCn1cc(O)c(=O)c(C(=O)O)c1		> 25000	14	
O=c1[nH]c2sc3c(c2c(=O)n1O)CCN(Cc1ccccc1)C3	15000	1100	59	CC50 at 24 h [6]: > 50000 nM; Papp [4]: 0.2 ×10⁻⁶ cm/s
COc1cn(Cc2ccc(F)cc2)cc(C(=O)NCc2ccc(F)cc2F)c1=O	> 50000			inhibition [8]: 6%
CC(C)c1cn(COCc2ccccc2)c(=O)n(O)c1=O				IC50 [15]: 5400 nM; EC50 [16]: 8 nM; IC50 [17]: 2500 nM; CC50 at 72 h [14]: > 20000 nM
COc1ccc(-c2ccc(Nc3cc(=O)n(O)c(=O)n3C)cc2)cc1		> 20000		
O=C(O)c1nc(-c2cccs2)nc(O)c1O				IC50 [9]: 2600 nM
O=C(O)C(=O)CC(=O)c1ccc(N2CCCCC2)cc1				IC50 [7]: 4500 nM
O=c1[nH]c2sc3c(c2c(=O)n1O)CCC3		480	19	Papp [4]: 0.4 ×10⁻⁶ cm/s
Cc1ccc(-c2ccc(Nc3cc(=O)n(O)c(=O)n3C)cc2)cc1	1200	2200		
O=C(O)c1cn(C2CC2)cc(O)c1=O		> 25000	2	
COc1ccc(-c2cccc(Nc3cc(=O)n(O)c(=O)[nH]3)c2)cc1	> 20000	14000		
O=c1[nH]c2sc3c(c2c(=O)n1O)CCNC3		680	26	Papp [4]: 0.1 ×10⁻⁶ cm/s
Cc1ccc(CNC(=O)c2nc(-c3ccccc3)c3cccnc3c2O)cc1		2800		
O=C1c2ccccc2C(c2ccccc2F)C(=O)N1O (centres undefined)	6200	1400	68	Papp [4]: 3 ×10⁻⁶ cm/s
